Some test systems named below: NCI-H226 lung; COLO 205 colon; RXF 393 renal; A498 renal; CCRF-CEM leukemia; HOP-62 NSCLC; DU-145 prostate; NCI-H460 lung; NCI-H23 lung; HL-60(TB) leukemia.
Common to all, as to assay: growth of human tumour cells (NCI), 48 h

Values joined by “and” are separate entries in the source; they are usually repeats but may differ in a detail not shown here. Equal entries are not always repeated.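 Grown in 96-well plates, cells were treated for 48 hours with each compound at five concentrations. Insufficient inhibition: endpoint recorded as highest concentration tested. GI50 = concentration required for 50% inhibition of growth. TGI denotes the concentration required for complete inhibition of growth.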

As to `CCCCc1ccc(C(N)=O)nc1`, the GI50 is more than 100 µM in the experiment on NCI-H226 lung; more than 100 µM with COLO 205 colon; more than 100 µM in the experiment with RXF 393 renal; 48.1 µM in the experiment on A498 renal; more than 100 µM in the experiment on CCRF-CEM leukemia; more than 100 µM in the experiment on HOP-62 NSCLC. Besides, the GI50 in the experiment with DU-145 prostate, in the experiment with NCI-H460 lung, with NCI-H23 lung and in the experiment on HL-60(TB) leukemia was more than 100 µM in each case. The TGI in the experiment on NCI-H226 lung, in the experiment on COLO 205 colon, in the experiment with RXF 393 renal, in the experiment on A498 renal, with CCRF-CEM leukemia and in the experiment on HOP-62 NSCLC was more than 100 µM each time. The TGI in the experiment with DU-145 prostate, in the experiment with NCI-H460 lung, with NCI-H23 lung and in the experiment with HL-60(TB) leukemia was more than 100 µM throughout.

As to `O=C(NC(c1ccccc1)C(O)C(=O)OCc1ccc2c(c1)C(=O)c1ccccc1C2=O)c1ccccc1` (stereo not given), the TGI is 18.7 µM in the experiment on NCI-H226 lung; more than 100 µM in the experiment with COLO 205 colon; 8.57 µM in the experiment with RXF 393 renal; 15.7 µM with A498 renal; more than 100 µM with CCRF-CEM leukemia; 9.82 µM in the experiment with HOP-62 NSCLC. The TGI in the experiment with DU-145 prostate is more than 100 µM; in the experiment with NCI-H460 lung, 42.8 µM; with NCI-H23 lung, 34.5 µM; in the experiment on HL-60(TB) leukemia, more than 100 µM.

For `CC(CCC/C=C/CCCN(C)C(=N)N)CC(C)C1OC(=O)C(C)C(O)/C=C/C(C)C(O)C(C)C(O)C(C)C(O)CCCC(O)CC2(O)OC(CC(OC(=O)CC(=O)O)CC(O)CC(O)C(C)C(O)/C=C/C=C/C1C)CC(O)C2O` (stereo not given), the GI50 is 6.21 µM and 14.1 µg/mL in the experiment with NCI-H226 lung; 1.75 µM and 2.42 µg/mL with COLO 205 colon; 1.98 µM and 1.89 µg/mL in the experiment with RXF 393 renal; 2.44 µM and 10.6 µg/mL with A498 renal; 2.7 µM in the experiment with CCRF-CEM leukemia; 4.29 µM and 10.5 µg/mL with HOP-62 NSCLC. Further, the GI50 is 2.22 µM and 6.85 µg/mL in the experiment on DU-145 prostate; 2.09 µM and 3.95 µg/mL in the experiment with NCI-H460 lung; 5.99 µM and 13.7 µg/mL in the experiment on NCI-H23 lung; 6.5 µg/mL in the experiment on HL-60(TB) leukemia. Further, the TGI with NCI-H226 lung was 24.2 µM and 26.9 µg/mL; in the experiment on COLO 205 colon, 3.33 µM and 10.6 µg/mL; in the experiment with RXF 393 renal, 3.71 µM and 4.59 µg/mL; in the experiment with A498 renal it was 7.16 µM and 21.3 µg/mL; in the experiment on CCRF-CEM leukemia, 11 µM; in the experiment on HOP-62 NSCLC, 17.1 µM and 21.6 µg/mL. The TGI in the experiment on DU-145 prostate was 4.71 µM and 16 µg/mL; in the experiment on NCI-H460 lung, 3.95 µM and 14.5 µg/mL; with NCI-H23 lung it was 20.8 µM and 29.4 µg/mL; with HL-60(TB) leukemia it was 21.2 µg/mL.

For `C=C1C(=O)O[C@H]2[C@H]1CC/C(Cn1cc(CNC(=O)c3cc4ccccc4[nH]3)nn1)=C\CC[C@@]1(C)O[C@@H]21`, the GI50 was 2.57 µM with NCI-H226 lung; 2.13 µM in the experiment on COLO 205 colon; 2.16 µM in the experiment with RXF 393 renal; 18.9 µM in the experiment with A498 renal; 0.527 µM in the experiment with CCRF-CEM leukemia; 13.3 µM in the experiment on HOP-62 NSCLC. The GI50 is 4.07 µM in the experiment on DU-145 prostate, 20.1 µM in the experiment on NCI-H460 lung, 14.3 µM in the experiment with NCI-H23 lung and 2.45 µM in the experiment with HL-60(TB) leukemia. Besides, the TGI in the experiment with NCI-H226 lung stood at 6.15 µM; with COLO 205 colon it was 4.48 µM; in the experiment on RXF 393 renal, 4.28 µM; with A498 renal, 36 µM; with CCRF-CEM leukemia it was 5.21 µM; with HOP-62 NSCLC it was 31.3 µM. For the same compound, the TGI in the experiment on DU-145 prostate was determined as 15.1 µM; in the experiment with NCI-H460 lung it was 41 µM; with NCI-H23 lung it was 34.5 µM; with HL-60(TB) leukemia, 5.79 µM.

On to `Cn1c(N)c(N=Nc2ccc(S(N)(=O)=O)cc2)c(=O)n(C)c1=O`, for which the TGI in the experiment with NCI-H226 lung, in the experiment with COLO 205 colon, in the experiment with RXF 393 renal, in the experiment with A498 renal, in the experiment on CCRF-CEM leukemia and in the experiment with HOP-62 NSCLC was more than 100 µM throughout. Also, the TGI in the experiment on DU-145 prostate, in the experiment on NCI-H460 lung, with NCI-H23 lung and with HL-60(TB) leukemia was more than 100 µM each time.

Regarding `Cc1cccc(NC(=O)c2sc3nc4c(cc3c2N)CCC4)c1C`, the GI50 with NCI-H226 lung was 2.65 µM; in the experiment on COLO 205 colon, 0.361 µM; in the experiment on RXF 393 renal, 0.18 µM; with A498 renal it was 0.262 µM; in the experiment on CCRF-CEM leukemia, 0.321 µM; in the experiment on HOP-62 NSCLC it was 0.428 µM. The GI50 was 0.407 µM in the experiment on DU-145 prostate, 0.382 µM with NCI-H460 lung, 0.749 µM in the experiment with NCI-H23 lung and 0.239 µM in the experiment on HL-60(TB) leukemia. The TGI worked out at 36.8 µM in the experiment on NCI-H226 lung; 1.97 µM in the experiment with COLO 205 colon; 0.669 µM in the experiment with RXF 393 renal; 0.938 µM in the experiment with A498 renal; 35.8 µM in the experiment with CCRF-CEM leukemia; 17.4 µM in the experiment with HOP-62 NSCLC. In addition, the TGI in the experiment on DU-145 prostate was 13.9 µM; in the experiment on NCI-H460 lung, 13.1 µM; in the experiment with NCI-H23 lung it was more than 100 µM; in the experiment on HL-60(TB) leukemia, 0.864 µM.

`CCN(CC)CCC(CNc1c2ccc(Cl)cc2nc2ccc(OC)cc12)c1ccccc1` (stereo not given): the GI50 in the experiment with NCI-H226 lung was 1.43 µM; in the experiment on COLO 205 colon, 1.09 µM; in the experiment with RXF 393 renal, 1.23 µM; in the experiment with A498 renal it was 1.4 µM; in the experiment with CCRF-CEM leukemia it was 1.1 µM; in the experiment on HOP-62 NSCLC, 1.16 µM. In addition, the GI50 in the experiment with DU-145 prostate is 1.32 µM; in the experiment with NCI-H460 lung it was 0.768 µM; in the experiment on NCI-H23 lung, 1.5 µM; in the experiment with HL-60(TB) leukemia it was 1.87 µM. Besides, the TGI with NCI-H226 lung was 4.99 µM; in the experiment with COLO 205 colon, 2.28 µM; in the experiment on RXF 393 renal it was 2.68 µM; in the experiment on A498 renal it was 2.75 µM; in the experiment on CCRF-CEM leukemia it was 5.17 µM; in the experiment on HOP-62 NSCLC, 3.11 µM. Also, the TGI is 6.09 µM with DU-145 prostate, 3.99 µM in the experiment on NCI-H460 lung, 3.55 µM with NCI-H23 lung and 4.71 µM in the experiment with HL-60(TB) leukemia.

Take `COc1cc(OC)c(-c2oc3ccccc3c(=O)c2O)c(OC)c1`: the TGI in the experiment on NCI-H226 lung is more than 100 µM; with COLO 205 colon, more than 100 µM; in the experiment on RXF 393 renal, 37.7 µM; with A498 renal it was more than 100 µM; in the experiment on CCRF-CEM leukemia it was more than 100 µM; in the experiment with HOP-62 NSCLC, more than 31.5 µM. Also, the TGI in the experiment with DU-145 prostate was more than 100 µM; in the experiment with NCI-H460 lung, more than 100 µM; in the experiment on NCI-H23 lung, more than 100 µM; in the experiment with HL-60(TB) leukemia, more than 24.1 µM.

For the compound `NC(=O)NOCC1NC(=O)NC1=O` (stereo not given), the TGI with NCI-H226 lung, in the experiment with COLO 205 colon, with RXF 393 renal, in the experiment with A498 renal, with CCRF-CEM leukemia and in the experiment on HOP-62 NSCLC was more than 100 µM each time. In addition, the TGI with DU-145 prostate, with NCI-H460 lung, in the experiment with NCI-H23 lung and in the experiment on HL-60(TB) leukemia was more than 100 µM in each case.

As to `C[CH2][Ge]1([CH2]C)[CH2]CC2(CCN(CCCN(C)C)C2)C[CH2]1`, the GI50 was 2.24 µM and 17.3 µM in the experiment with NCI-H226 lung; 0.39 µM and 1.29 µM in the experiment on COLO 205 colon; 1.71 µM and 1.21 µM in the experiment on RXF 393 renal; 1.64 µM and 1.05 µM in the experiment with A498 renal; 0.709 µM and 1.4 µM in the experiment with CCRF-CEM leukemia; 0.949 µM and 4.87 µM in the experiment on HOP-62 NSCLC. Also, the GI50 with DU-145 prostate is 2.48 µM and 3.09 µM; in the experiment on NCI-H460 lung, 1.44 µM and 2.53 µM; in the experiment with NCI-H23 lung it was 2.47 µM and 4.11 µM; in the experiment with HL-60(TB) leukemia, 0.312 µM and 1.21 µM. The TGI was 4.92 µM and 32.1 µM in the experiment on NCI-H226 lung; 1.12 µM and 1.77 µM in the experiment with COLO 205 colon; 4.29 µM and 3.4 µM in the experiment on RXF 393 renal; 3.26 µM and 1.68 µM in the experiment with A498 renal; 2.33 µM and 2.44 µM with CCRF-CEM leukemia; 1.89 µM and 9.25 µM in the experiment with HOP-62 NSCLC. Further, the TGI in the experiment on DU-145 prostate is 6.64 µM and 8.84 µM; in the experiment on NCI-H460 lung, 3.05 µM and 4.6 µM; in the experiment with NCI-H23 lung, 8.19 µM and 8.41 µM; in the experiment on HL-60(TB) leukemia it was 1.61 µM and 1.79 µM.

`COC(=O)c1cc(CNCCc2c[nH]c3ccccc23)on1`: the TGI in the experiment on NCI-H226 lung, with COLO 205 colon, with RXF 393 renal, in the experiment with A498 renal, in the experiment on CCRF-CEM leukemia and with HOP-62 NSCLC was more than 100 µM throughout. The TGI in the experiment on DU-145 prostate, in the experiment with NCI-H460 lung, with NCI-H23 lung and in the experiment with HL-60(TB) leukemia was more than 100 µM each time.

For `Oc1c(Br)cc(Br)c2cccnc12`, the GI50 in the experiment with NCI-H226 lung is 5.09 µM; with COLO 205 colon it was 3.79 µM; in the experiment on RXF 393 renal it was 4.13 µM; in the experiment on A498 renal it was 2.03 µM; with CCRF-CEM leukemia, 2.63 µM; with HOP-62 NSCLC it was 3.57 µM. The GI50 in the experiment with DU-145 prostate was 3.72 µM; in the experiment with NCI-H460 lung, 2.94 µM; in the experiment with NCI-H23 lung, 3.56 µM; with HL-60(TB) leukemia, 2.28 µM. Further, the TGI was 30.2 µM in the experiment on NCI-H226 lung; 25 µM with COLO 205 colon; 23.3 µM in the experiment with RXF 393 renal; 11.5 µM with A498 renal; 8.83 µM in the experiment on CCRF-CEM leukemia; 30.8 µM with HOP-62 NSCLC. Besides, the TGI with DU-145 prostate is 40.3 µM; in the experiment on NCI-H460 lung, 10.7 µM; with NCI-H23 lung it was 23.6 µM; in the experiment on HL-60(TB) leukemia, 5.13 µM.

The values above are taken from PubChem BioAssay (NCI).
